# Measurements as given in patent US9694016B2 (Novartis AG, priority 2013, dated 2017).
# Where two headings read alike, the source gives them in different places.
# Target: b-Raf (V600E) (Homo sapiens (Human), UniProt P15056, V600E)
# Conditions: read-out: b-Raf IC-50, AlphaScreen
# [1] = 60 min pre-incubation, 3 hours reaction
# [2] = 60 min pre-incubation, reaction 3 hours at room temperature
# Sequence of b-Raf (V600E) (P15056 whole entry V600E): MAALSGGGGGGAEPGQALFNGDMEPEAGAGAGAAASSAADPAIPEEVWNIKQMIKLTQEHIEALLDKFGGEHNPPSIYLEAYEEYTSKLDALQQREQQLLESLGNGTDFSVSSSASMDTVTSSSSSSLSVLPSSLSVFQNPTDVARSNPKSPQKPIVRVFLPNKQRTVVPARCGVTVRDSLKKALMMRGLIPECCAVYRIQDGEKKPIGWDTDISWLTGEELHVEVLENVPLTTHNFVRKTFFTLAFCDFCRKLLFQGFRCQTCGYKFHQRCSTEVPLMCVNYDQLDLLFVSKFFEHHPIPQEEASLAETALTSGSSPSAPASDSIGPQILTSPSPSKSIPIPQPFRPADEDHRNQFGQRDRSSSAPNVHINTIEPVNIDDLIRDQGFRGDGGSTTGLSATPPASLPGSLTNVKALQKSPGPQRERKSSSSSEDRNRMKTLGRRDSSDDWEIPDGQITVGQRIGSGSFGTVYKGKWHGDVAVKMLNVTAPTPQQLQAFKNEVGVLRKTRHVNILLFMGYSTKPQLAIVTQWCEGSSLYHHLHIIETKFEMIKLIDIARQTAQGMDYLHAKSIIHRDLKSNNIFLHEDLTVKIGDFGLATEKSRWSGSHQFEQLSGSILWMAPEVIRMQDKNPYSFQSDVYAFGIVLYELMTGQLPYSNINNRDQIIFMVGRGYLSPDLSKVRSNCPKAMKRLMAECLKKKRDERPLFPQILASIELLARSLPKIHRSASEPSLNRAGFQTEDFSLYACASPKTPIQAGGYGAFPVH
Compound,IC50 [1] [nM],other results
"Cc1ncc(NC(=O)c2cnnc(C(F)(F)F)c2)cc1-c1cnc(Cl)c(N2CCOCC2)c1 [Example 292, N-(6′-chloro-2-methyl-5′-morpholino-[3,3′-bipyridin]-5-yl)-6-(trifluoromethyl)pyridazine-4-carboxamide]",–,"IC50 (Table 2, 3 hours reaction): 3.8 nM"
"CCNc1nc(-c2cc(NC(=O)c3ccnc(C(C)(C)C#N)c3)ccc2C)cc(N2CCOC[C@H]2C)n1 [Example 711, (R)-2-(2-cyanopropan-2-yl)-N-(3-(2-(ethylamino)-6-(3-methylmorpholino)pyrimidin-4-yl)-4-methylphenyl)isonicotinamide]",5.6,–
"Cc1ncc(NC(=O)c2ccnc(C(C)(C)O)c2)cc1-c1cc(N2CCOCC2)n(C)c(=O)c1 [Example 501, N-(1′,2-dimethyl-6′-morpholino-2′-oxo-1′,2′-dihydro-[3,4′-bipyridin]-5-yl)-2-(2-hydroxypropan-2-yl)isonicotinamide]",32.2,–
"Cc1ncc(NC(=O)c2cccc(C(F)(F)F)c2)cc1-c1cc(N2CCOCC2)nc(N2CC(O)C2)c1 [Example 1094, N-(2′-(3-hydroxyazetidin-1-yl)-2-methyl-6′-morpholino-[3,4′-bipyridin]-5-yl)-3-(trifluoromethyl)benzamide]",–,IC50 [2]: 3.84 nM
"Cc1ccc(NC(=O)c2ccnc(C3(C#N)CC3)c2)cc1-c1cc(N2CCOCC2)nc(N2CC(C)(O)C2)c1 [Example 1111, 2-(1-cyanocyclopropyl)-N-(3-(2-(3-hydroxy-3-methylazetidin-1-yl)-6-morpholinopyridin-4-yl)-4-methylphenyl)isonicotinamide]",–,IC50 [2]: 2.09 nM
"Cc1ncc(NC(=O)c2cnnc(C(C)(C)C#N)c2)cc1-c1cnc(Cl)c(N2CCOCC2)c1 [Example 293, N-(6′-chloro-2-methyl-5′-morpholino-[3,3′-bipyridin]-5-yl)-6-(2-cyanopropan-2-yl)pyridazine-4-carboxamide]",–,"IC50 (Table 2, 3 hours reaction): 32.3 nM"
"Cc1ccc(NC(=O)c2ccnc(C(C)C)c2)cc1-c1cc(N2CCOCC2)nc(OC2CNC2)n1 [Example 778, N-(3-(2-(azetidin-3-yloxy)-6-morpholinopyrimidin-4-yl)-4-methylphenyl)-2-isopropylisonicotinamide]",2.3,–
"Cc1ccc(NC(=O)c2ccnc(C(C)(F)F)c2)cc1-c1cc(N2C3CCC2COC3)c(=O)n(C)n1 [Example 670, N-(3-(5-(3-oxa-8-azabicyclo[3.2.1]octan-8-yl)-1-methyl-6-oxo-1,6-dihydropyridazin-3-yl)-4-methylphenyl)-2-(1,1-difluoroethyl)isonicotinamide]",2.8,–
"Cc1ccc(NC(=O)c2ccnc(C3CC3)c2)cc1-c1cc(N2CCOCC2)n(C)c(=O)c1 [Example 477, 2-cyclopropyl-N-(4-methyl-3-(1-methyl-6-morpholino-2-oxo-1,2-dihydropyridin-4-yl)phenyl)isonicotinamide]",0.4,–
"CCNc1nc(-c2cc(NC(=O)c3ccnc(C(C)(C)C)c3)cnc2C)cc(N2CCOCC2)n1 [Example 724, 2-(tert-butyl)-N-(5-(2-(ethylamino)-6-morpholinopyrimidin-4-yl)-6-methylpyridin-3-yl)isonicotinamide]",20.5,–
"Cc1ncc(NC(=O)c2cccc(C(F)F)c2)cc1-c1cc(N2CCOCC2)n2nccc2n1 [Example 804, 3-(difluoromethyl)-N-(6-methyl-5-(7-morpholinopyrazolo[1,5-a]pyrimidin-5-yl)pyridin-3-yl)benzamide]",0.8,–
"Cc1ncc(NC(=O)c2cccc(C(C)(C)S(C)(=O)=O)c2)cc1-c1cc(N2CCOCC2)n(C)c(=O)c1 [Example 512, N-(1′,2-dimethyl-6′-morpholino-2′-oxo-1′,2′-dihydro-[3,4′-bipyridin]-5-yl)-3-(2-(methylsulfonyl)propan-2-yl)benzamide]",59.8,–
"Cc1ccc(C(=O)Nc2cccc(C(F)(F)F)c2)cc1-c1cc(N2CCOCC2)c2nccn2n1 [Example 888, 4-methyl-3-(8-morpholinoimidazo[1,2-b]pyridazin-6-yl)-N-(3-(trifluoromethyl)phenyl)benzamide]",–,IC50 [2]: 1.6 nM
"Cc1ncc(NC(=O)c2cccc(S(C)(=O)=O)c2)cc1-c1cc(N2CCOCC2)nc(N2CC(O)C2)c1 [Example 1084, N-(2′-(3-hydroxyazetidin-1-yl)-2-methyl-6′-morpholino-[3,4′-bipyridin]-5-yl)-3-(methylsulfonyl)benzamide]",–,IC50 [2]: 23.3 nM
"CCNc1nc(-c2cc(C(=O)Nc3ccccc3)ccc2C)cc(N2CCOCC2)n1 [Example 731, 3-(2-(ethylamino)-6-morpholinopyrimidin-4-yl)-4-methyl-N-phenylbenzamide]",4.4,–
"Cc1ccc(C(=O)Nc2cccc(C(C)(C)C#N)c2)cc1-c1cc(N2CCOCC2)c(=O)n(C)c1 [Example 431, N-(3-(2-cyanopropan-2-yl)phenyl)-4-methyl-3-(1-methyl-5-morpholino-6-oxo-1,6-dihydropyridin-3-yl)benzamide]",–,"IC50 (Table 2, 3 hours reaction): 3.7 nM"
"Cc1ncc(NC(=O)c2cccc(C(F)F)c2)cc1-c1cc(N2CCOCC2)n(C)c(=O)c1 [Example 506, 3-(difluoromethyl)-N-(1′,2-dimethyl-6′-morpholino-2′-oxo-1′,2′-dihydro-[3,4′-bipyridin]-5-yl)benzamide]",1.8,–

Compound,IC50 [1] [nM],other results
"Cc1ncc(NC(=O)c2cccc(C(F)(F)F)c2)cc1-c1cnc(OC2CNC2)c(N2CCOCC2)c1 [Example 325, N-(6′-(azetidin-3-yloxy)-2-methyl-5′-morpholino-[3,3′-bipyridin]-5-yl)-3-(trifluoromethyl)benzamide]",–,"IC50 (Table 2, 3 hours reaction): 300 nM"
"CCOc1ccc(-c2cc(NC(=O)c3ccnc(C(C)(F)F)c3)cnc2C)nc1N1CCOCC1 [Example 1028, 2-(1,1-difluoroethyl)-N-(5-ethoxy-2′-methyl-6-morpholino-[2,3′-bipyridin]-5′-yl)isonicotinamide]",–,IC50 [2]: 4.11 nM
"CCc1cc(C(=O)Nc2ccc(C)c(-c3cc(N4CCOCC4)n(C)c(=O)c3)c2)ccn1 [Example 476, 2-ethyl-N-(4-methyl-3-(1-methyl-6-morpholino-2-oxo-1,2-dihydropyridin-4-yl)phenyl)isonicotinamide]",0.6,–
"Cc1ccc(NC(=O)c2ccnc(C(F)(F)F)c2)cc1-c1c(F)c(NCCO)nc(N2CCOCC2)c1F [Example 1014, N-(3-(3,5-difluoro-2-((2-hydroxyethyl)amino)-6-morpholinopyridin-4-yl)-4-methylphenyl)-2-(trifluoromethyl)isonicotinamide]",–,IC50 [2]: 12.8 nM
"Cc1ncc(NC(=O)c2ccnc(C(C)(C)F)c2)cc1-c1cnc(OC[C@H](C)O)c(N2CCOCC2)c1 [Example 990, (S)-2-(2-fluoropropan-2-yl)-N-(6′-(2-hydroxypropoxy)-2-methyl-5-morpholino-[3,3′-bipyridin]-5-yl)isonicotinamide]",–,IC50 [2]: 5.41 nM
"Cc1ccc(NC(=O)c2cn(C(C)C)nc2C)cc1-c1cc(N2CCOCC2)c(=O)n(C)c1 [Example 367, 1-isopropyl-3-methyl-N-(4-methyl-3-(1-methyl-5-morpholino-6-oxo-1,6-dihydropyridin-3-yl)phenyl)-1H-pyrazole-4-carboxamide]",–,"IC50 (Table 2, 3 hours reaction): 12.6 nM"
"Cc1ccc(NC(=O)c2ccnc(C3COC3)c2)cc1-c1cc(N2CCOCC2)n(C)c(=O)c1 [Example 478, N-(4-methyl-3-(1-methyl-6-morpholino-2-oxo-1,2-dihydropyridin-4-yl)phenyl)-2-(oxetan-3-yl)isonicotinamide]",2.5,–
"Cc1ccc(NC(=O)c2cc(F)cc(N3CCOCC3)c2)cc1-c1cc(N2CCOCC2)n(C)c(=O)c1 [Example 491, 3-fluoro-N-(4-methyl-3-(1-methyl-6-morpholino-2-oxo-1,2-dihydropyridin-4-yl)phenyl)-5-morpholinobenzamide]",2.1,–
"Cc1ccc(C(=O)Nc2ccccc2)cc1-c1cc(N2CCOCC2)c(=O)n(C)c1 [Example 429, 4-methyl-3-(1-methyl-5-morpholino-6-oxo-1,6-dihydropyridin-3-yl)-N-phenylbenzamide]",–,"IC50 (Table 2, 3 hours reaction): 33.7 nM"
"Cc1ccc(NC(=O)c2ccnc(C(C)(F)F)c2)cc1-c1cc(N2CCOCC2)c2nccn2n1 [Example 843, 2-(1,1-difluoroethyl)-N-(4-methyl-3-(8-morpholinoimidazo[1,2-b]pyridazin-6-yl)phenyl)isonicotinamide]",0.8,–
"Cc1ccc(NC(=O)c2cnnc(C(C)(C)C#N)c2)cc1-c1cc(NCCO)nc(N2CCOCC2)c1 [Example 1049, 6-(2-cyanopropan-2-yl)-N-(3-(2-((2-hydroxyethyl)amino)-6-morpholinopyridin-4-yl)-4-methylphenyl)pyridazine-4-carboxamide]",–,IC50 [2]: 7.69 nM
"Cc1ncc(NC(=O)c2cc(C(C)(C)O)ccn2)cc1-c1cnc(OC2CC3(COC3)C2)c(N2CCOCC2)c1 [Example 969, N-(6′-(2-oxaspiro[3.3]heptan-6-yloxy)-2-methyl-5′-morpholino-[3,3′-bipyridin]-5-yl)-4-(2-hydroxypropan-2-yl)picolinamide]",–,IC50 [2]: 18 nM
"CCn1c(N2CCOCC2)cc(-c2cc(NC(=O)c3ccnc(C(C)C)c3)ccc2C)cc1=O [Example 522, N-(3-(1-ethyl-6-morpholino-2-oxo-1,2-dihydropyridin-4-yl)-4-methylphenyl)-2-isopropylisonicotinamide]",2.5,–
"COc1cncc(NC(=O)c2ccc(C)c(-c3cc(N4CCOCC4)c(=O)n(C)c3)c2)c1 [Example 442, N-(5-methoxypyridin-3-yl)-4-methyl-3-(1-methyl-5-morpholino-6-oxo-1,6-dihydropyridin-3-yl)benzamide]",68.7,–
"Cc1ncc(NC(=O)c2cccc(C(F)(F)F)c2)cc1-c1cc(N2CCOCC2)c(OC2CCOCC2)nn1 [Example 636, N-(6-methyl-5-(5-morpholino-6-((tetrahydro-2H-pyran-4-yl)oxy)pyridazin-3-yl)pyridin-3-yl)-3-(trifluoromethyl)benzamide]",1.3,–
"COCCOc1nnc(-c2cc(NC(=O)c3ccnc(C(C)(C)F)c3)ccc2C)cc1N1CCOCC1 [Example 600, 2-(2-fluoropropan-2-yl)-N-(3-(6-(2-methoxyethoxy)-5-morpholinopyridazin-3-yl)-4-methylphenyl)isonicotinamide]",0.8,–
